Source: PubChem BioAssay (NCI)
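Test compounds were applied to cells in 96-well plates for 48 hours at 5 doses. TGI: total growth inhibition.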

Key:
Test in all cases: NCI tumour cell line growth inhibition, 48 h
BT-549 breast = tested on: BT-549 breast
HS 578T breast = tested on: HS 578T breast
RXF 393 renal = tested on: RXF 393 renal
TK-10 renal = tested on: TK-10 renal
SR leukemia = tested on: SR leukemia
T-47D breast = tested on: T-47D breast
MDA-N = tested on: MDA-N
PC-3 prostate = tested on: PC-3 prostate
MDA-MB-435 = tested on: MDA-MB-435
M14 melanoma = tested on: M14 melanoma
HT29 colon = tested on: HT29 colon
XF 498 CNS = tested on: XF 498 CNS
A549 NSCLC = tested on: A549 NSCLC
P388 leukemia = tested on: P388 leukemia
KM20L2 colon = tested on: KM20L2 colon
P388/ADR leukemia = tested on: P388/ADR leukemia
SNB-78 CNS = tested on: SNB-78 CNS
DMS 273 small cell lung = tested on: DMS 273 small cell lung
SN12K1 renal = tested on: SN12K1 renal
HCT-116 colon = tested on: HCT-116 colon

**Q.** How did the TGI (BT-549 breast) turn out when `O=C(c1ccco1)C1CC(c2c(O)ccc3ccccc23)=NN1` (configuration not stated) was run?
**A.** 31 µM

**Q.** And the TGI (HS 578T breast)?
**A.** 46.3 µM

**Q.** And the TGI (RXF 393 renal)?
**A.** 50 µM

**Q.** What about the TGI (TK-10 renal) of the same molecule?
**A.** 32.5 µM

**Q.** And the TGI (SR leukemia)?
**A.** 42.8 µM

**Q.** What about the TGI (T-47D breast) of the same molecule?
**A.** 50.5 µM

**Q.** What about the TGI (MDA-N) of the same molecule?
**A.** 36.4 µM

**Q.** And the TGI (PC-3 prostate)?
**A.** 21.1 µM

**Q.** What about the TGI (MDA-MB-435) of the same molecule?
**A.** 22.4 µM

**Q.** And the TGI (M14 melanoma)?
**A.** 26 µM

**Q.** What about the TGI (HT29 colon) of the same molecule?
**A.** 24 µM

**Q.** How did the TGI (XF 498 CNS) turn out when `CC1(C)OC2CC(=O)OCC23C1CC(=O)C1(C)C3CCC2(C)C(c3ccoc3)OC(=O)C3OC321` (configuration not stated) was run?
**A.** > 125 µM

**Q.** And the TGI (A549 NSCLC)?
**A.** > 125 µM

**Q.** What about the TGI (RXF 393 renal) of the same molecule?
**A.** > 125 µM

**Q.** What about the TGI (P388 leukemia) of the same molecule?
**A.** > 39.5 µM

**Q.** And the TGI (KM20L2 colon)?
**A.** > 125 µM

**Q.** And the TGI (P388/ADR leukemia)?
**A.** > 125 µM

**Q.** What about the TGI (SNB-78 CNS) of the same molecule?
**A.** > 125 µM

**Q.** What about the TGI (HT29 colon) of the same molecule?
**A.** > 125 µM

**Q.** What about the TGI (DMS 273 small cell lung) of the same molecule?
**A.** > 125 µM

**Q.** And the TGI (SN12K1 renal)?
**A.** > 125 µM

**Q.** What about the TGI (HCT-116 colon) of the same molecule?
**A.** > 125 µM
